In article PMC8482776 (ACS Omega, 2021):
≈ marks a conversion by molar mass, not a printed value. Where “and” joins values, the source holds several entries; their conditions need not be identical. Equal values may be shown once.

What was measured:
[1] = tested on: C. albicans (ATCC 10231); assay: Microdilution MIC90, strain A; format: cell-based; settings: for MIC90: yeast, 24 h at 37 °C, triplicate
[2] = tested on: C. albicans (ATCC 10231); assay: Membrane permeabilization assay; format: cell-based; settings: 8b, 8c at 1 × MIC, 2 × MIC, 4 × MIC (0.5, 1, 2 μg/mL); AMB 1 μg/mL; 3 h at 28 °C
[3] = tested on: Asp. nidulans (PTCC 5014); assay: Microdilution MIC90, strain F; format: cell-based, Aspergillus nidulans; settings: filamentous fungi, 48 h at 37 °C, triplicate
[4] = tested on: Microsporum gypseum (PTCC 5070); assay: Microdilution MIC90, strain L; format: cell-based; settings: filamentous fungi, 48 h at 37 °C, triplicate
[5] = tested on: C. krusei (ATCC 6258); assay: Microdilution MIC90, strain B; format: cell-based; settings: for MIC90: yeast, 24 h at 37 °C, triplicate
[6] = tested on: C. parapsilosis (ATCC 22019); assay: Microdilution MIC90, strain D; format: cell-based; settings: 24 h
[7] = tested on: C. tropicalis (PTCC 5028); assay: Microdilution MIC90, strain E; format: cell-based; settings: 24 h
[8] = tested on: T. mentagrophytes (PTCC 5054); assay: Microdilution MIC90, strain M; format: cell-based; settings: Trichophyton mentagrophytes, PTCC5054, 48 h
[9] = tested on: Asp. flavus (ATCC 204304); assay: Microdilution MIC90, strain G; format: cell-based, Aspergillus flavus; settings: filamentous fungi, 48 h at 37 °C, triplicate
[10] = tested on: T. rubrum (PTCC 5143); assay: Microdilution MIC90, strain K; format: cell-based, Trichophyton rubrum; settings: filamentous fungi, 48 h at 37 °C, triplicate
[11] = tested on: T. schoenleinii (PTCC 5221); assay: Microdilution MIC90, strain N; format: cell-based; settings: Trichophyton schoenleinii, PTCC5221, 48 h
[12] = tested on: M. canis (PTCC 5069); assay: Microdilution MIC90, strain O; format: cell-based; settings: Microsporum canis, PTCC5069, 48 h
[13] = tested on: Asp. terreus (PTCC 5023); assay: Microdilution MIC90, strain J; format: cell-based, Aspergillus terreus; settings: Aspergillus terreus, PTCC5023, 48 h, filamentous fungi, 48 h at 37 °C, triplicate
[14] = tested on: Asp. niger (PTCC 5154); assay: Microdilution MIC90, strain I; format: cell-based, Aspergillus niger; settings: Aspergillus niger, PTCC5154, 48 h, filamentous fungi, 48 h at 37 °C, triplicate
[15] = tested on: Asp. fumigatus (PTCC 5009); assay: Microdilution MIC90, strain H; format: cell-based; settings: Aspergillus fumigatus, PTCC5009, 48 h, filamentous fungi, 48 h at 37 °C, triplicate
[16] = tested on: C. glabrata (ATCC 90030); assay: Microdilution MIC90, strain C; format: cell-based; settings: yeast, 24 h at 37 °C, triplicate
[17] = tested on: C. albicans (ATCC 10231); assay: Murine model of systemic candidiasis; format: in vivo; settings: neutropenic mice (n = 5), 15 mg/kg oral gavage, left kidney tissue
[18] = tested on: human red blood cells (hRBCs); assay: Hemolysis assay; format: cell-based; settings: positive control, 2 h at 37 °C
[19] = Aspergillus nidulans, PTCC5014, 48 h
[20] = Aspergillus flavus, ATCC204304, 48 h
[21] = Trichophyton rubrum, PTCC5143, 48 h

Row | MIC90 [3, 19] | MIC90 [3] | MIC90 [4] | MIC90 ([5]; 24 h) | MIC90 [6] | MIC90 [7] | MIC90 [8] | MIC90 [9, 20] | MIC90 ([1]; 24 h, strain A) | MIC90 [10, 21] | MIC90 [11] | MIC90 [12] | MIC90 [13] | MIC90 [14] | MIC90 [15] | MIC90 [9] | MIC90 ([16]; 24 h) | Compound | further results
1 | – | – | – | – | – | – | – | – | – | – | – | – | – | – | – | – | – | C[C@@H]1[C@H](O)[C@@H](C)/C=C/C=C/C=C/C=C/C=C/C=C/C=C/[C@H](O[C@@H]2O[C@H](C)[C@@H](O)[C@H](N)[C@@H]2O)C[C@@H]2O[C@](O)(C[C@@H](O)C[C@@H](O)[C@H](O)CC[C@@H](O)C[C@@H](O)CC(=O)O[C@H]1C)C[C@H](O)[C@H]2C(=O)O [AMB, amphotericin B, reference compound] | MIC ([1]; Candida albicans, ATCC10231): 1 µg/mL (≈ 1.08 µM); cellular uptake of the PI dye [2]: increased the PI dye uptake
2 | 2 to 4 µg/mL (≈ 3.97 to 7.94 µM) | 4 μg·mL^–1 | 2 μg·mL^–1 | 0.5 µg/mL (≈ 0.993 µM) | 8 µg/mL (≈ 15.9 µM) | 16 µg/mL (≈ 31.8 µM) | 32 µg/mL (≈ 63.5 µM) | 8 µg/mL (≈ 15.9 µM) | 0.5 µg/mL (≈ 0.993 µM) | 8 µg/mL (≈ 15.9 µM) | 8 µg/mL (≈ 15.9 µM) | 16 µg/mL (≈ 31.8 µM) | 16 µg/mL (≈ 31.8 µM) | 16 µg/mL (≈ 31.8 µM) | 16 µg/mL (≈ 31.8 µM) | – | – | Cc1ccc(NC(=O)Nc2nnc(SCC(O)(Cn3cncn3)c3ccc(F)cc3F)s2)cc1 (stereo not shown) [Compound 8e, 1-(5-((2-(2,4-Difluorophenyl)-2-hydroxy-3-(1H-1,2,4-triazol-1-yl)propyl)thio)-1,3,4-thiadiazol-2-yl)-3-(p-tolyl)urea] | fold greater potency than that of FLC ([5]; from MIC values): 32 fold; MIC90 [5]: 1 μg·mL^–1; fold greater potency than that of FLC ([1]; strain A, from MIC values): 32 fold; MIC90 ([1]; strain A): 1 μg·mL^–1
3 | 2 to 4 µg/mL (≈ 3.82 to 7.63 µM) | 4 μg·mL^–1 | 4 μg·mL^–1 | – | 8 µg/mL (≈ 15.3 µM) | – | – | 2 to 4 µg/mL (≈ 3.82 to 7.63 µM) | 4 µg/mL (≈ 7.63 µM) | 2 µg/mL (≈ 3.82 µM) | – | – | – | – | – | 4 μg·mL^–1 | – | O=C(Nc1cccc(Cl)c1)Nc1nnc(SCC(O)(Cn2cncn2)c2ccc(F)cc2F)s1 (stereo not shown) [Compound 8f, 1-(3-Chlorophenyl)-3-(5-((2-(2,4-difluorophenyl)-2-hydroxy-3-(1H-1,2,4-triazol-1-yl)propyl)thio)-1,3,4-thiadiazol-2-yl)urea] | –
4 | 8 µg/mL (≈ 15.8 µM) | – | 4 μg·mL^–1 | 2 µg/mL (≈ 3.94 µM) | 0.5 µg/mL (≈ 0.985 µM) | 16 µg/mL (≈ 31.5 µM) | 16 µg/mL (≈ 31.5 µM) | 2 to 4 µg/mL (≈ 3.94 to 7.88 µM) | 2 µg/mL (≈ 3.94 µM) | 4 µg/mL (≈ 7.88 µM) | 8 µg/mL (≈ 15.8 µM) | 8 µg/mL (≈ 15.8 µM) | 32 µg/mL (≈ 63.1 µM) | 16 µg/mL (≈ 31.5 µM) | 16 µg/mL (≈ 31.5 µM) | 4 μg·mL^–1 | 1 to 16 µg/mL (≈ 1.97 to 31.5 µM) | O=C(Nc1cccc(F)c1)Nc1nnc(SCC(O)(Cn2cncn2)c2ccc(F)cc2F)s1 (stereo not shown) [Compound 8g, 1-(5-((2-(2,4-Difluorophenyl)-2-hydroxy-3-(1H-1,2,4-triazol-1-yl)propyl)thio)-1,3,4-thiadiazol-2-yl)-3-(3-fluorophenyl)urea] | MIC90 [16]: 1 μg·mL^–1
5 | 2 to 4 µg/mL (≈ 3.97 to 7.94 µM) | 2 μg·mL^–1 | – | 16 µg/mL (≈ 31.8 µM) | 8 µg/mL (≈ 15.9 µM) | 8 µg/mL (≈ 15.9 µM) | 16 µg/mL (≈ 31.8 µM) | 2 to 4 µg/mL (≈ 3.97 to 7.94 µM) | 8 µg/mL (≈ 15.9 µM) | 16 µg/mL (≈ 31.8 µM) | 8 µg/mL (≈ 15.9 µM) | 16 µg/mL (≈ 31.8 µM) | 32 µg/mL (≈ 63.5 µM) | 16 µg/mL (≈ 31.8 µM) | 8 µg/mL (≈ 15.9 µM) | 2 μg·mL^–1 | 32 µg/mL (≈ 63.5 µM) | Cc1cccc(NC(=O)Nc2nnc(SCC(O)(Cn3cncn3)c3ccc(F)cc3F)s2)c1 (stereo not shown) [Compound 8i, 1-(5-((2-(2,4-Difluorophenyl)-2-hydroxy-3-(1H-1,2,4-triazol-1-yl)propyl)thio)-1,3,4-thiadiazol-2-yl)-3-(m-tolyl)urea] | –
6 | 16 µg/mL (≈ 28.7 µM) | – | – | 32 µg/mL (≈ 57.4 µM) | 8 µg/mL (≈ 14.3 µM) | 16 µg/mL (≈ 28.7 µM) | 16 µg/mL (≈ 28.7 µM) | 16 µg/mL (≈ 28.7 µM) | – | 8 µg/mL (≈ 14.3 µM) | 16 µg/mL (≈ 28.7 µM) | 16 µg/mL (≈ 28.7 µM) | 32 µg/mL (≈ 57.4 µM) | 32 µg/mL (≈ 57.4 µM) | 16 µg/mL (≈ 28.7 µM) | – | 32 µg/mL (≈ 57.4 µM) | O=C(Nc1cccc(C(F)(F)F)c1)Nc1nnc(SCC(O)(Cn2cncn2)c2ccc(F)cc2F)s1 (stereo not shown) [Compound 8j, 1-(5-((2-(2,4-Difluorophenyl)-2-hydroxy-3-(1H-1,2,4-triazol-1-yl)propyl)thio)-1,3,4-thiadiazol-2-yl)-3-(3-(trifluoromethyl)phenyl)urea] | –
7 | 8 µg/mL (≈ 14.1 µM) | – | – | – | 16 µg/mL (≈ 28.1 µM) | 8 µg/mL (≈ 14.1 µM) | 32 µg/mL (≈ 56.3 µM) | 8 µg/mL (≈ 14.1 µM) | 32 µg/mL (≈ 56.3 µM) | 2 to 4 µg/mL (≈ 3.52 to 7.04 µM) | 64 µg/mL (≈ 113 µM) | 64 µg/mL (≈ 113 µM) | 16 µg/mL (≈ 28.1 µM) | 32 µg/mL (≈ 56.3 µM) | 32 µg/mL (≈ 56.3 µM) | – | 16 µg/mL (≈ 28.1 µM) | O=C(Nc1nnc(SCC(O)(Cn2cncn2)c2ccc(F)cc2F)s1)Nc1ccccc1Br (stereo not shown) [Compound 8m, 1-(2-Bromophenyl)-3-(5-((2-(2,4-difluorophenyl)-2-hydroxy-3-(1H-1,2,4-triazol-1-yl)propyl)thio)-1,3,4-thiadiazol-2-yl)urea] | MIC90 [10]: 4 μg·mL^–1
8 | 2 to 4 µg/mL (≈ 4.09 to 8.17 µM) | 2 μg·mL^–1 | 4 μg·mL^–1 | 32 µg/mL (≈ 65.4 µM) | 8 µg/mL (≈ 16.3 µM) | 16 µg/mL (≈ 32.7 µM) | 16 µg/mL (≈ 32.7 µM) | 8 µg/mL (≈ 16.3 µM) | – | 2 to 4 µg/mL (≈ 4.09 to 8.17 µM) | 16 µg/mL (≈ 32.7 µM) | 16 µg/mL (≈ 32.7 µM) | 8 µg/mL (≈ 16.3 µM) | 32 µg/mL (≈ 65.4 µM) | 32 µg/mL (≈ 65.4 µM) | – | 32 µg/mL (≈ 65.4 µM) | O=C(Nc1ccccc1)Nc1nnc(SCC(O)(Cn2cncn2)c2ccc(F)cc2F)s1 (stereo not shown) [Compound 8o, 1-(5-((2-(2,4-Difluorophenyl)-2-hydroxy-3-(1H-1,2,4-triazol-1-yl)propyl)thio)-1,3,4-thiadiazol-2-yl)-3-phenylurea] | MIC90 [10]: 4 μg·mL^–1
9 | 8 µg/mL (≈ 15.2 µM) | – | 4 μg·mL^–1 | – | 8 µg/mL (≈ 15.2 µM) | 32 µg/mL (≈ 60.9 µM) | 16 µg/mL (≈ 30.4 µM) | 2 to 4 µg/mL (≈ 3.81 to 7.61 µM) | – | 16 µg/mL (≈ 30.4 µM) | 16 µg/mL (≈ 30.4 µM) | 16 µg/mL (≈ 30.4 µM) | 16 µg/mL (≈ 30.4 µM) | – | – | 4 μg·mL^–1 | 32 µg/mL (≈ 60.9 µM) | O=C(Nc1nnc(SCC(O)(Cn2cncn2)c2ccc(F)cc2F)s1)Nc1ccc(F)cc1F (stereo not shown) [Compound 8p, 1-(2,4-Difluorophenyl)-3-(5-((2-(2,4-difluorophenyl)-2-hydroxy-3-(1H-1,2,4-triazol-1-yl)propyl)thio)-1,3,4-thiadiazol-2-yl)urea] | –
10 | 8 µg/mL (≈ 14.9 µM) | – | 4 μg·mL^–1 | 32 µg/mL (≈ 59.5 µM) | 16 µg/mL (≈ 29.7 µM) | 64 µg/mL (≈ 119 µM) | 16 µg/mL (≈ 29.7 µM) | 2 to 4 µg/mL (≈ 3.72 to 7.43 µM) | 64 µg/mL (≈ 119 µM) | 2 to 4 µg/mL (≈ 3.72 to 7.43 µM) | 32 µg/mL (≈ 59.5 µM) | 32 µg/mL (≈ 59.5 µM) | 16 µg/mL (≈ 29.7 µM) | 32 µg/mL (≈ 59.5 µM) | 32 µg/mL (≈ 59.5 µM) | 4 μg·mL^–1 | 32 µg/mL (≈ 59.5 µM) | Cc1ccc(NC(=O)Nc2nnc(SCC(O)(Cn3cncn3)c3ccc(F)cc3F)s2)cc1Cl (stereo not shown) [Compound 8r, 1-(3-Chloro-4-methylphenyl)-3-(5-((2-(2,4-difluorophenyl)-2-hydroxy-3-(1H-1,2,4-triazol-1-yl)propyl)thio)-1,3,4-thiadiazol-2-yl)urea] | MIC90 [10]: 4 μg·mL^–1
11 | – | – | – | – | – | – | – | – | – | – | – | – | – | – | – | – | – | C[C@@H](c1ncncc1F)[C@](O)(Cn1cncn1)c1ccc(F)cc1F [VOR, voriconazole, reference compound] | kidney fungal burden, CFU/g (mean ± SD) [17]: 318 CFU/g and 318 ± 66.5 ^b CFU/g
12 | – | – | – | – | – | – | – | – | – | – | – | – | – | – | – | – | – | Triton X-100 [reference compound] | hemolysis [18]: 86.2%
